Measurements from patent US20250034186A1, “ANTIVIRAL COMPOUNDS” (priority 2020, published 2025).

Assays:
[1] = system: HRVc25 replicon; assay: HRVc25 HeLa replicon EC50; assay type: cell-based; details: Human rhinovirus sp., HRV25, H1-HeLa, 48 h, read-out: HRV25 Rep EC50
Method: First, HRV replicon RNA is prepared. 5 μg of DNA Template (HRVc15 or HRVc25) is linearized with 2 μL of MluI enzyme in NEB buffer-3 in a final volume of 25 μL for 3 hours at 37° C. Following incubation, linearized DNA is purified on a PCR purification column and the following in vitro transcription is performed using the following conditions: 10 μL of RiboMAX Express T7 2× buffer, 1-8 μL of linear DNA template (1 μg), 0-7 μL nuclease free water, 2 μL enzyme mix T7 express. The final volume of 20 μL is mixed and incubated at 37° C. for 30 min. Following incubation, 1 μL of RQ1 RNase free DNase is added and the mixture is incubated at 37° C. for 15 min. The resulting RNA is then purified with the MegaClear Kit (Gibco Life Technologies Cat #11835-030) and is eluted two times with 50 μL of elution buffer at 95° C. […] Replicon activity is then measured by a Renilla-Glo Luciferase Assay system. Prior to signal quantification, plates are removed from incubators and are allowed to equilibrate to 25° C. after 50 uL is removed from each well. […] Plates are then incubated for 20 min at 25° C. under gentle agitation and luciferase signal are determined with a 0.1 second detection setting using an EnVision luciferase quantification reader.

[2] = system: Dengue 2, New Guinea strain (NGC); assay: DENV-2 moDC EC50; assay type: cell-based; details: Dengue virus, Dendritic cell; human monocyte-derived dendritic cells, 48 hours, qPCR
Method: Human monocyte-derived dendritic cells (moDCs) were derived from CD14+ monocytes (AllCells) cultured in Human Mo-DC Differentiation medium containing GM-CSF and IL-4 (Miltenyi Biotec). On day 7, moDCs were harvested by mechanical disruption, washed and suspended in serum-free RPMI. moDCs were infected with Vero-derived Dengue 2, New Guinea strain (NGC) at a MOI=0.1 for two hours in serum-free RPMI with gentle agitation at 37° C. Cells were washed and resuspended in 10% serum-containing RPMI (Gibco, supplemented with sodium pyruvate, NEAA, Penicillin-Streptomycin). 10^5 cells were plated in triplicate in 96-well plates with compounds dispensed at graded doses (Hewlett-Packard D300 Digital Dispenser). All wells were normalized to 0.25% DMSO. At 48 hours, cells were washed with 1×PBS and all supernatants removed. Total RNA was extracted using RNEasy 96 plates (Qiagen) and used to generate first-strand cDNA using XLT cDNA 5× Supermix (QuantaBio). cDNA was used as a template in a Taqman qPCR duplex reaction specific to DENV2 viral and GAPDH gene expression. EC50 values were determined using Prism Graphpad software, with normalization to a positive control and no compound negative control wells.

[3] = NHBE in-vitro intracellular triphosphate formation; assay type: in vitro ADME, human; details: 10 μM, up to 26 h, compared to compound 2 and/or 6 (FIG. 1)
Method: In-vitro intracellular triphosphate formation was measured for the compound of Formula I and compound 6 using the following protocol. Normal human bronchial airway epithelial cells (NHBEs) (0.25 million cells/well) were continuously incubated with 10 μM of compound for 26 hours. At select time points (2, 4, 6, and 26 h), the extracellular medium was removed from the well and the cells were washed twice with 2 mL of ice-cold 0.9% normal saline and extracted into 0.5 mL ice-cold 70% methanol containing 100 nM 2-chloro-adenosine-5′-triphosphate (Sigma-Aldrich, St. Louis, MO) as an internal standard. Samples were stored overnight at −20° C. to facilitate nucleotide extraction, centrifuged at 15,000×g for 15 minutes and then supernatant was transferred to clean tubes for drying in a MiVac Duo concentrator (Genevac, Gardiner, NY). Dried samples were then reconstituted in mobile phase A containing 3 mM ammonium formate (pH 5.0) with 10 mM dimethylhexylamine (DMHA) in water for analysis by LC-MS/MS.

For `C[C@H](N[P@](=O)(OC[C@@]1(C#N)O[C@@H](c2ccc3c(N)ncnn23)[C@H](O)[C@@H]1O)Oc1ccccc1)C(=O)OC1CCCCC1` [Formula I, cyclohexyl ((S)-(((2R,3S,4R,5S)-5-(4-aminopyrrolo[2,1-f][1,2,4]triazin-7-yl)-2-cyano-3,4-dihydroxytetrahydrofuran-2-yl)methoxy)(phenoxy)phosphoryl)-L-alaninate], the EC50 [1] was 7 nM, the EC50 [2] was greater than 6190 nM and the “in-vitro intracellular NTP formation in NHBEs” value [3] was “equal to or better”.
